Literature values, collected in patent US6506600B2, “Secreting products from skin by adeno-associated virus (AAV) gene transfer” (University of Arkansas, priority 2000, dated 2003).

How the values were obtained:
[1] = system: pulmonary alveolar proteinosis; conditions: four PAP patients; subcutaneous once daily for 12 wk, 3 to 9 μg/kg/d
neutrophil count = conditions: patients with neutropenia due to chemotherapy; initial dose 5 microg/kg/day
neutropenia = conditions: neonates <32 weeks gestation; 10 μg/kg/d subcutaneous for 5 days

granulocyte macrophage colony stimulating factor [GM-CSF]
symptomatic, physiologic and radiographic response [1]: Three of the four patients experienced symptomatic, physiologic, and radiographic improvement | rise of neutrophil count (median) (neutrophil count): 6.6 fold | serum half-life (serum): 8 h | effect on neutropenia (neutropenia): completely abolished neutropenia

hGH: human growth hormone, 22 kDa
t1/2 (in vivo): 4 min
